In patent US11998600B2, “Enhancing the therapeutic activity of an immune checkpoint inhibitor” (MaineHealth, priority 2015, dated 2024):

Columns and labels:
Format in all cases: cell-based, human
[1] = test system: HRMVEC; assay: Cell proliferation assay, HRMVEC; conditions: peptide 100 ng/ml, 24 hours; FIG. 8D
Protocol: (§1) HUVECs (WT, shYAP1 or control transfected) or HRMVECs were plated at 2,000 cells per well with complete EGM-2 media containing 2.0% FBS in the absence or presence of P-1, P-2 or P-C (100 ng/ml) and allowed to grow for 24 hours. Cell growth was monitored using a BrdU or MMT assay kits according to manufacturer's instructions. All assays were completed at least three times in triplicate wells.

[2] = test system: endothelial cells in which YAP was knocked down; assay: Cell proliferation assay, endothelial cells transduced with YAP specific shRNA; conditions: soluble peptide (FIG. 8H) or VEGF 50 ng/ml (FIG. 8I)
Protocol: as §1
(§2) Raw cells were transfected with 1 μg of HuSH shRNA plasmids for collagen type I, alpha 2 using Amaxa cell line nucleofector kit V (program #T024). Constructs expressing 21-nucleotide short hairpin RNAs (shRNA) targeting human YAP (shYAP) or non-targeting control (shNT, Sigma-Aldrich, SHC002) were used. Humantargeting shYAP1 lentiviral shRNA was obtained from the Thermo Scientific RNAi consortium (TRCN0000107625). Constructs were packaged into lentivirus, pseudotyped with the vesicular stomatitis virus glycoprotein. Transduction was performed by incubating cells with lentivirus, and stably transduced cells were subsequently used for studies. All cell lines were verified by morphology and mouse and human YAP-specific PCR. […] Endothelial cells were certified mycoplasma-negative by PCR (Lonza), and primary cell cultures were used within the indicated passage numbers. Cells were transduced and selected using puromycin.
(§3) Endothelial cells with YAP specific or non-specific shRNAs were transduced.

[3] = test system: endothelial cells transduced with non-specific shRNA; assay: Cell proliferation assay, endothelial cells transduced with non-specific shRNA; conditions: soluble peptide; FIG. 8G
Protocol: as §1, §2, §3

[4] = test system: HUVEC; assay: Cell proliferation assay, HUVEC; conditions: peptide 100 ng/ml, 24 hours; FIG. 8C
Protocol: as §1

[5] = test system: Fak; assay: Fak phosphorylation in endothelial cells attached to collagen peptides; conditions: serum free conditions
Protocol: Whole cell and CAM tissue lysates were collected in RIPA buffer supplemented with 1× protease inhibitor and 1× phosphatase inhibitor and were run on polyacrylamide gels using denaturing conditions. Prior to loading the gels, 6× sample buffer was added to each of the lysates (final concentration 1×) and boiled for five minutes. Twenty to 50 μg of total protein were loaded into each lane. For detection of proteins larger than 50 kD, 10% gels were used; for proteins smaller than 50 kD 15% gels were used. Gels were run at 60 volts (v) until the dye front passed through the stacking gel, and then the voltage was increased to 100V for the remainder of the separation. Precision Plus protein standards (Bio-Rad) were used to visualize migration. […] Western blot bands were quantified using Image J software based on pixel intensity.
Because both RGD containing peptides bind αvβ3 coupled with the differential effect of these peptides on angiogenesis and inflammation, it was determined whether the RGD peptides differentially altered αvβ3-mediated signaling. […] Therefore, the differential phosphorylation of these protein kinases following the early mechanical-mediated interactions with the RGD containing collagen peptides was assessed. […]

[6] = test system: Src; assay: Src phosphorylation in endothelial cells attached to collagen peptides, Western blot; conditions: HUVEC; FIG. 7D
Protocol: Whole cell and CAM tissue lysates were collected in RIPA buffer supplemented with 1× protease inhibitor and 1× phosphatase inhibitor and were run on polyacrylamide gels using denaturing conditions. Prior to loading the gels, 6× sample buffer was added to each of the lysates (final concentration 1×) and boiled for five minutes. Twenty to 50 μg of total protein were loaded into each lane. […] Gels were run at 60 volts (v) until the dye front passed through the stacking gel, and then the voltage was increased to 100V for the remainder of the separation. Precision Plus protein standards (Bio-Rad) were used to visualize migration. Protein was transferred to nitrocellulose membranes using a wet tank system and blocked for 1 h using 10% non-fat dried milk in tris-buffered saline with 0.01% Tween-20 (TBS-T). […] Membranes were washed 3 times in TBS-T for five minutes. Blots were then incubated with HRP conjugated secondary antibodies (1:15000) in 1% non-fat milk in TBS-T for 1 h. Membranes were washed a second time as indicated above and exposed to chemiluminecent substrate for three minutes prior to exposure to autoradiography film in a dark room. Western blot bands were quantified using Image J software based on pixel intensity.

In the case of QGPRGDKGE [Mab P-2], the “HRMVEC growth with soluble peptide” value [1] is reported as “significantly (P<0.05) enhanced endothelial cell growth”, the “endothelial cell growth in YAP knock down cells” value [2] is reported as “failed to induce growth” and the “endothelial cell growth in control transduced cells” value [3] is reported as “enhanced growth”. The “HUVEC growth with soluble peptide” value [4] was “significantly (P<0.05) enhanced endothelial cell growth”, the “Fak phosphorylation following ligation of peptide” value [5] was “Minimal Fak phosphorylation” and the “enhancement of Src phosphorylation, P-2 as compared to P-1” value [6] was ~2 fold.
